Here are results for 1 compound from ChEMBL document CHEMBL1151358, “Doridosine, 1-methylisoguanosine, from Anisodoris nobilis; structure, pharmacological properties and synthesis” (1981).

Assay [1] in a line: Inhibition of guinea pig atrial contraction at 14 uM. It counts as functional. The following applies: Cavia porcellus, Cardiac atrium.
Assay [2] is described as follows: Inhibition of guinea pig atrial contraction at 20 uM. The format is functional. The following applies: Cavia porcellus, Cardiac atrium.
The nature of assay [3]: Inhibition of guinea pig atrial contraction at 5 uM in presence of 10 uM/L theophylline. It counts as functional, Cavia porcellus, Cardiac atrium.
A short description of assay [4]: Inhibition of guinea pig atrial contraction at 5 uM in presence of 100 uM/L theophylline. It counts as functional, Cavia porcellus, Cardiac atrium.
The nature of assay [5]: Inhibition of guinea pig atrial contraction at 20 uM in presence of 100 uM/L theophylline. It counts as functional, Cavia porcellus, Cardiac atrium.
A short description of assay [6]: Inhibition of guinea pig atrial contraction at 5 uM. The format is functional. The following applies: Cavia porcellus, Cardiac atrium.
Assay [7] is described as follows: Inhibition of guinea pig atrial contraction at 20 uM in presence of 10 uM/L theophylline. The format is functional, Cavia porcellus, Cardiac atrium.

For the compound `Cn1c(=O)[nH]c2c(ncn2[C@@H]2O[C@H](CO)[C@@H](O)[C@H]2O)c1=N`, 14 µM produced 50% inhibition in assay [1]. The compound further gave an inhibition at 20 µM in assay [2] of 45.2%. Also, the “inhibition (INH)” value in assay [3] is given as 83%; in assay [4], 64%; in assay [5], 82%; in assay [7] it was 95%. The compound also had an inhibition at 5 µM in assay [6] of 65%.
